The species entered for experiment [1] is Homo sapiens. Nature of the experiment: Selectivity ratio of Ki for displacement of [3H]-(R)-(+)7-OH-DPAT from human dopamine D3 receptor expressed in HEK293 cell membranes to Ki for displacement of [3H]-(R)-(+)7-OH-DPAT from human dopamine D2 receptor expressed in HEK293 cell membranes.
Experiment [2] deals with D(2) dopamine receptor (Homo sapiens, UniProt P14416). Nature of the experiment: Displacement of [3H]-(R)-(+)7-OH-DPAT from human dopamine D2 receptor expressed in HEK293 cell membranes incubated for 90 mins by microbeta scintillation counting analysis. Details: species or system Cell membrane. (Displacement assays read how much labelled ligand stays bound in the presence of the test substance.)

In experiment [3] the target is D(3) dopamine receptor (Homo sapiens, UniProt P35462). Nature of the experiment: Displacement of [3H]-(R)-(+)7-OH-DPAT from human dopamine D3 receptor expressed in HEK293 cell membranes incubated for 90 mins by microbeta scintillation counting analysis. Details: species or system Cell membrane.
Experiment [4] deals with HEK293. Nature of the experiment: Selectivity ratio of Ki for displacement of [3H]-(R)-(+)7-OH-DPAT from human dopamine D2 receptor expressed in HEK293 cell membranes to Ki for displacement of [3H]-(R)-(+)7-OH-DPAT from human dopamine D3 receptor expressed in HEK293 cell membranes. The settings on record: Cell membrane.
The species entered for experiment [5] is Homo sapiens. Nature of the experiment: Selectivity ratio of Ki for displacement of [3H]-N-methylspiperone from human dopamine D2 receptor expressed in HEK293 cell membranes to Ki for displacement of [3H]-N-methylspiperone from human dopamine D3 receptor expressed in HEK293 cell membranes.

Sequence of D(2) dopamine receptor (P14416 whole entry): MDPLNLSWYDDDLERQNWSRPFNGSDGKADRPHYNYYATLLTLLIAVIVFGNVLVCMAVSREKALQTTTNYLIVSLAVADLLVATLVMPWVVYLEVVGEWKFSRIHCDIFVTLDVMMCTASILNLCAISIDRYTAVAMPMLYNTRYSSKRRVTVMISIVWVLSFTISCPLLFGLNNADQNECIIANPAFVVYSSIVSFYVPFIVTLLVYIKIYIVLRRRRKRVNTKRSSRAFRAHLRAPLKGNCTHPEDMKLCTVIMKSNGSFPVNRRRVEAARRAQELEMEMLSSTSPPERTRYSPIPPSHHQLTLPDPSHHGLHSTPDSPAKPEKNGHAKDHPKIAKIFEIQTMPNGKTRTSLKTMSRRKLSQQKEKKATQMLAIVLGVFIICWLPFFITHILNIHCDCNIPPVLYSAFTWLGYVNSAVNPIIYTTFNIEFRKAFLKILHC
Sequence of D(3) dopamine receptor (P35462 whole entry): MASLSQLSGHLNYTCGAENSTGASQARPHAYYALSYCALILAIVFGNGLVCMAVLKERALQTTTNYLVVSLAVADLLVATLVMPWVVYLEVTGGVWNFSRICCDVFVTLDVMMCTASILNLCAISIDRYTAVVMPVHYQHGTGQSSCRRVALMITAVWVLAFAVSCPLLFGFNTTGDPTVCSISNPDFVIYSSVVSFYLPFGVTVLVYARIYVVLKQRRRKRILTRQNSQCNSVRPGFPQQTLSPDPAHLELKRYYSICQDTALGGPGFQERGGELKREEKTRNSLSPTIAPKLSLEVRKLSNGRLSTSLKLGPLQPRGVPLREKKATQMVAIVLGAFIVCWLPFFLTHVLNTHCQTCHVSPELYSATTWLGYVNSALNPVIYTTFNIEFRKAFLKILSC

Take `CN(CC[C@@H]1CC[C@@H](CNC(=O)c2cc3ccccc3[nH]2)C1)[C@@H]1Cc2cccc3[nH]c(=O)n(c23)C1` (relative stereo): the Ratio Ki in experiment [1] worked out at 17.
Usually Ki stands for a measure of affinity in units of concentration, obtained from inhibition or displacement. Read a high Ki as weaker binding. With `C[C@H]1CO[C@@H](c2ccc(N)nc2)CN1CC(=O)N1CCC(CNC(=O)c2cc3ccccc3[nH]2)C1` (some centres undefined), the Ki in experiment [2] was found to be 1870 nM; in experiment [3], 1380 nM. Further, the Ratio Ki was 1.4 in experiment [4] and 3.3 in experiment [5].
Take `CN(C[C@@H]1C[C@H]1CCNC(=O)c1cc2ccccc2[nH]1)[C@@H]1Cc2cccc3[nH]c(=O)n(c23)C1`: the Ki was 9.56 nM in experiment [2] and 106 nM in experiment [3]. Moreover, in experiment [1], the Ratio Ki amounted to 11.
On to `CN(CC[C@@H]1CC[C@H](CNC(=O)c2cc3ccccc3[nH]2)C1)[C@@H]1Cc2cccc3[nH]c(=O)n(c23)C1` (relative stereo), for which, in experiment [1], the Ratio Ki turned out to be 9.6.
In the case of `CN(C[C@H]1C[C@@H]1CCNC(=O)c1cc2ccccc2[nH]1)[C@@H]1Cc2cccc3[nH]c(=O)n(c23)C1`, the figures for the Ki in experiment [2] and in experiment [3] were 49.1 nM and 22.1 nM, respectively. For the same compound, the Ratio Ki in experiment [4] came out at 2.2.
Consider `C[C@H]1CO[C@@H](c2ccc(N)nc2)CN1C/C=C1\CCC(CNC(=O)c2cc3ccccc3[nH]2)C1` (mixture of isomers), for which the Ratio Ki in experiment [4] is 7.5; in experiment [5], 76.
Take `C[C@H]1CO[C@@H](c2ccc(N)nc2)CN1CCn1cc(CNC(=O)c2cc3ccccc3[nH]2)nn1`: the Ki in experiment [2] was 13500 nM; in experiment [3], 6860 nM. The Ratio Ki in experiment [4] was determined as 2; in experiment [5], 12.
For `CN[C@@H]1Cc2cccc3[nH]c(=O)n(c23)C1` [SUMANIROLE], the Ki in experiment [3] was found to be 784 nM.

The values are drawn from ChEMBL document CHEMBL5226346, “Chiral Cyclic Aliphatic Linkers as Building Blocks for Selective Dopamine D2 or D3 Receptor Agonists” (J Med Chem, 2021).
